This is an account of results in patent publication US20260265195A1, “SARM1 MODULATORS, PREPARATIONS, AND USES THEREOF” (SIRONAX LTD, priority 2022, published 2026).

pIC50: −log10 of the molar value.

The assay deals with T1, SARM1 (50-724) (Homo sapiens, UniProt Q6SZW1).
T1 construct: Purified SARM1 (50-724) with a final concentration of 2 nM
T1 sequence (Q6SZW1 50-724): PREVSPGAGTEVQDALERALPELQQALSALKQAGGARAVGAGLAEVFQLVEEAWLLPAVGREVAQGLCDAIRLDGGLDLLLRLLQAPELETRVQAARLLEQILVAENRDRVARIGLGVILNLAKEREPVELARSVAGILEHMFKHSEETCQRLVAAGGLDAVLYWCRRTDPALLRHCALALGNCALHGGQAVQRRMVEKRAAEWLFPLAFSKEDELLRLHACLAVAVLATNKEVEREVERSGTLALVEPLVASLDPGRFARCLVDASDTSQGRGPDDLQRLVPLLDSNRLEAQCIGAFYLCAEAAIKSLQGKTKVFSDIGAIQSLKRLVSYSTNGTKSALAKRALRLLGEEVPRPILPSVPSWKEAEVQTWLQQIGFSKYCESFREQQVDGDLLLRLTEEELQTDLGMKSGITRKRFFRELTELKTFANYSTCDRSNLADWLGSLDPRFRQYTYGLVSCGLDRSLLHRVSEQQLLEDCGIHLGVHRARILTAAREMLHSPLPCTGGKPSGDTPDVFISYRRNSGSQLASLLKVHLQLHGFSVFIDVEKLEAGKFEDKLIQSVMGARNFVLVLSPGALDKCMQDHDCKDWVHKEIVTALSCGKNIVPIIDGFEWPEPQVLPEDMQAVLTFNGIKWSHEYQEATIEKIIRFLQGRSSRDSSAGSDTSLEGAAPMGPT
Description: SARM1 (50-724) enzymatic assay (NMN-activated NAD+ hydrolysis, LC-MS/MS readout). It is filed as biochemical. Conditions: purified SARM1 (50-724) 2 nM, 200 μM NMN activator, 100 μM NAD+ substrate, 1 h at room temperature, read-out: IC50 (SARM1 inhibitory activity). The essentials: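 NMN-activated NAD+ hydrolysis: compound pre-incubated 15 min at room temperature with 2 nM SARM1 (50-724) at 1% DMSO in DPBS; 100 μM NAD+ plus 200 μM NMN added and reacted 1 h at RT. Acetonitrile quench, LC-MS/MS readout.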
A word on the pIC50: it is −log10 of the IC50, conventionally taken in molar units. Consider `O=C(c1nc2cc(C(F)(F)F)ccc2[nH]1)N(CCO)c1nccc(Cl)c1Cl` [Compound 100, N-(3,4-dichloropyridin-2-yl)-N-(2-hydroxyethyl)-5-(trifluoromethyl)-1H-benzo[d]imidazole-2-carboxamide], for which the negative logarithm of the IC50 (pIC50) is at least 7.00.
For `CN(C(=O)c1nc2c(N3CCOCC3)cccc2[nH]1)C1CCCC1` [Compound 101, N-cyclopentyl-N-methyl-4-morpholino-1H-benzo[d]imidazole-2-carboxamide] the value was at most 6.00.
Regarding `CC1CCC(C)C1N(CCO)C(=O)c1nc2cc(C(F)(F)F)ccc2[nH]1` (stereo not drawn) [Compound 102, N-(2,5-dimethylcyclopentyl)-N-(2-hydroxyethyl)-5-(trifluoromethyl)-1H-benzo[d]imidazole-2-carboxamide], the pIC50 is at least 7.00.
For `O=C(c1nc2cc(C(F)(F)F)ccc2[nH]1)N(CCO)c1cccc(Cl)c1Cl` [Compound 103, N-(2,3-dichlorophenyl)-(2-hydroxyethyl)-5-(trifluoromethyl)-1H-benzo[d]imidazole-2-carboxamide], the pIC50 was at least 7.00.
In the case of `CN(C(=O)c1nc2cc(Br)ccc2[nH]1)C1CCCC1` [Compound 104, 5-bromo-N-cyclopentyl-N-methyl-1H-benzo[d]imidazole-2-carboxamide], the pIC50 was 6.30 to 7.00.
Regarding `O=C(c1nc2cc(C(F)(F)F)ccc2[nH]1)N(CC1COC1)c1cccc(Cl)c1Cl` [Compound 105, N-(2,3-dichlorophenyl)-N-(oxetan-3-ylmethyl)-5-(trifluoromethyl)-1H-benzo[d]imidazole-2-carboxamide], the pIC50 is at least 7.00.
Consider `O=C(c1nc2cc(C(F)(F)F)ccc2[nH]1)N(CC(F)(F)C(=O)O)c1cccc(Cl)c1Cl` [Compound 106, 3-(N-(2,3-dichlorophenyl)-6-(trifluoromethyl)-1H-benzo[d]imidazole-2-carboxamido)-2,2-difluoropropanoic acid], for which the pIC50 is at least 7.00.
Take `NC(=O)C(F)(F)CN(C(=O)c1nc2cc(C(F)(F)F)ccc2[nH]1)c1cccc(Cl)c1Cl` [Compound 107, N-(3-amino-2,2-difluoro-3-oxopropyl)-N-(2,3-dichlorophenyl)-5-(trifluoromethyl)-1H-benzo[d]imidazole-2-carboxamide]: the negative logarithm of the IC50 (pIC50) was at least 7.00.
As to `CS(=O)(=O)c1ccc2[nH]c(C(=O)N(CCO)c3cccc(Cl)c3Cl)nc2c1` [Compound 108, N-(2,3-dichlorophenyl)-N-(2-hydroxyethyl)-5-(methylsulfonyl)-1H-benzo[d]imidazole-2-carboxamide], the negative logarithm of the IC50 (pIC50) is 6.30 to 7.00.
With `N#Cc1cc(Cl)c(Cl)c(N(CCO)C(=O)c2nc3cc(C(F)(F)F)ccc3[nH]2)c1` [Compound 109, N-(2,3-dichloro-5-cyanophenyl)-N-(2-hydroxyethyl)-5-(trifluoromethyl)-1H-benzo[d]imidazole-2-carboxamide] the figure was 6.30 to 7.00.
As to `Cn1nc(N(CCO)C(=O)c2nc3cc(C(F)(F)F)ccc3[nH]2)c(Cl)c1Cl` [Compound 110, N-(4,5-dichloro-1-methyl-1H-pyrazol-3-yl)-N-(2-hydroxyethyl)-5-(trifluoromethyl)-1H-benzo[d]imidazole-2-carboxamide], the negative logarithm of the IC50 (pIC50) was at least 7.00.
`Cn1nc(N(CC2COC2)C(=O)c2nc3cc(C(F)(F)F)ccc3[nH]2)c(Cl)c1Cl` [Compound 111, N-(4,5-dichloro-1-methyl-1H-pyrazol-3-yl)-N-(oxetan-3-ylmethyl)-5-(trifluoromethyl)-1H-benzo[d]imidazole-2-carboxamide]: the pIC50 was at least 7.00.
As to `O=C(c1nc2cc(C(F)(F)F)ccc2[nH]1)N(CC(F)(F)CO)c1cccc(Cl)c1Cl` [Compound 112, N-(2,3-dichlorophenyl)-N-(2,2-difluoro-3-hydroxypropyl)-5-(trifluoromethyl)-1H-benzo[d]imidazole-2-carboxamide], the pIC50 was at least 7.00.
`CN(C(=O)c1nc2c(C3COC3)cccc2[nH]1)C1CCCC1` [Compound 113, N-cyclopentyl-N-methyl-4-(oxetan-3-yl)-1H-benzo[d]imidazole-2-carboxamide]: the pIC50 is at most 6.00.
With `O=C(c1nc2cc(C(F)(F)F)ccc2[nH]1)N(CC1CNC1)c1cccc(Cl)c1Cl` [Compound 114, N-(azetidin-3-ylmethyl)-N-(2,3-dichlorophenyl)-5-(trifluoromethyl)-1H-benzo[d]imidazole-2-carboxamide] the figure was 6.30 to 7.00; with `N#Cc1ccc(Cl)c(Cl)c1N(CCO)C(=O)c1nc2cc(C(F)(F)F)ccc2[nH]1` [Compound 115, N-(2,3-dichloro-6-cyanophenyl)-N-(2-hydroxyethyl)-5-(trifluoromethyl)-1H-benzo[d]imidazole-2-carboxamide], at least 7.00.
As for `O=C(c1nc2cc(C(F)(F)F)ccc2[nH]1)N(CCN1CC(F)(F)C1)c1cccc(Cl)c1Cl` [Compound 116, N-(2,3-dichlorophenyl)-N-(2-(3,3-difluoroazetidin-1-yl)ethyl)-5-(trifluoromethyl)-1H-benzo[d]imidazole-2-carboxamide], the pIC50 was at least 7.00.
For `O=C(c1nc2cc(C(F)(F)F)ccc2[nH]1)N(c1cccc(Cl)c1Cl)C1CNC1` [Compound 117, N-(azetidin-3-yl)-N-(2,3-dichlorophenyl)-5-(trifluoromethyl)-1H-benzo[d]imidazole-2-carboxamide], the pIC50 was at most 6.00.
With `Cc1c(Cl)cccc1N(C)C(=O)c1nc2cc(C(F)(F)F)ccc2[nH]1` [Compound 118, N-(3-chloro-2-methylphenyl)-N-methyl-5-(trifluoromethyl)-1H-benzo[d]imidazole-2-carboxamide] the figure was at least 7.00; with `O=C(c1nc2cc(-c3ccn[nH]3)ccc2[nH]1)N(CC1COC1)c1cccc(Cl)c1Cl` [Compound 119], 6.30 to 7.00.
Take `CN(C(=O)c1nc2cc(C(F)(F)F)ccc2[nH]1)c1cc(F)cc(Cl)c1Cl` [Compound 120, N-(2,3-dichloro-5-fluorophenyl)-N-methyl-5-(trifluoromethyl)-1H-benzo[d]imidazole-2-carboxamido]: the pIC50 was at least 7.00.
For `CNCCN(C(=O)c1nc2cc(C(F)(F)F)ccc2[nH]1)c1cccc(Cl)c1Cl` [Compound 121, N-(2,3-dichlorophenyl)-N-(2-(methylamino)ethyl)-5-(trifluoromethyl)-1H-benzo[d]imidazole-2-carboxamide], the pIC50 was 6.30 to 7.00.
Turning to `Cc1cc(-c2ccc3[nH]c(C(=O)N(CC4COC4)c4cccc(Cl)c4Cl)nc3c2)[nH]n1` [Compound 122], the pIC50 was 6.30 to 7.00.
Regarding `Cc1ccc2[nH]c(C(=O)N(C)c3cccc(Cl)c3Cl)nc2c1` [Compound 123, N-(2,3-dichlorophenyl)-N,5-dimethyl-1H-benzimidazole-2-carboxamide], the pIC50 was at least 7.00.
With `Cc1cn[nH]c1-c1ccc2[nH]c(C(=O)N(CC3COC3)c3cccc(Cl)c3Cl)nc2c1` [Compound 124] the figure was at most 6.00.
On to `Cc1cccc(N(C)C(=O)c2nc3cc(C(F)(F)F)ccc3[nH]2)c1Cl` [Compound 125, N-(2-chloro-3-methylphenyl)-N-methyl-5-(trifluoromethyl)-1H-benzo[d]imidazole-2-carboxamide], for which the negative-log IC50 (pIC50) is at least 7.00.
With `Cn1nc(Cl)c(Cl)c1N(CCO)C(=O)c1nc2cc(C(F)(F)F)ccc2[nH]1` [Compound 126, N-(3,4-dichloro-1-methyl-1H-pyrazol-5-yl)-N-(2-hydroxyethyl)-5-(trifluoromethyl)-1H-benzo[d]imidazole-2-carboxamide] the figure was at most 6.00.
